{"source": "patent US11839619B2", "about": "“Methods for treatment of pediatric systemic mastocytosis” (The Regents of the University of California, priority 2019, dated 2023)", "origin": "cited, not measured here", "conditions": "in vivo", "data": [{"smiles": "CO[C@@H]1[C@H](N(C)C(=O)c2ccccc2)C[C@H]2O[C@]1(C)n1c3ccccc3c3c4c(c5c6ccccc6n2c5c31)C(=O)NC4", "note": "[midostaurin]", "values": [{"measurement": "common side effects", "result": "nausea, vomiting, diarrhea, and thrombocytopenia"}]}]}
